For 10 molecules, MIC results are on record in ChEMBL document CHEMBL1126299, “Synthesis and structure-activity relationships of cephalosporins with C-3' catechol-containing residues” (J Med Chem, 1992).

What all share (experiment): microbe, parasite or virus in culture
Assay [1] relates to Pseudomonas aeruginosa.
For assay [2], the system named is Staphylococcus aureus.
For assay [3], the system named is Pseudomonas aeruginosa. This is another data set of the same source.
For assay [4], the system named is Pseudomonas aeruginosa. The source holds these as a separate data set.
The test system of assay [5] is Enterobacter cloacae.
Assay [6] deals with Escherichia coli.
In assay [7] the test system is Enterobacter cloacae. This is another data set of the same source.
Assay [8] has as its system Enterobacter cloacae. This is another data set of the same source.
In assay [9] the test system is Pseudomonas aeruginosa. This is another data set of the same source.
Assay [10] concerns Staphylococcus aureus. The source holds these as a separate data set.
Assay [11] concerns Pseudomonas aeruginosa. This is another data set of the same source.
For assay [12], the system named is Escherichia coli. The source holds these as a separate data set.
The subject of assay [13] is Providencia stuartii.
Assay [14] relates to Citrobacter freundii.
Assay [15] deals with Citrobacter freundii. This is another data set of the same source.
Assay [16] has as its system Providencia stuartii. The source holds these as a separate data set.
The test system of assay [17] is Enterobacter cloacae. This is another data set of the same source.

Each structure is given as a SMILES string. ≈ marks a conversion by molar mass, not a printed value. Some results are limits rather than exact numbers.

For the molecule `CCO/N=C(\C(=O)N[C@@H]1C(=O)N2C(C(=O)O)=C(CNC(=O)c3cn(CC)c4cc(O)c(O)cc4c3=O)CSC12)c1csc(N)n1` (some centres undefined), the MIC turned out to be 0.008 µg/mL (≈ 0.0122 µM) in assay [1]; 1 µg/mL (≈ 1.52 µM) in assay [2]; 0.015 µg/mL (≈ 0.0228 µM) in assay [3]; 0.008 µg/mL (≈ 0.0122 µM) in [4]; 0.03 µg/mL (≈ 0.0456 µM) in [5]; 0.008 µg/mL (≈ 0.0122 µM) in assay [6]. The MIC in assay [7] stood at 1 µg/mL (≈ 1.52 µM); in assay [8], 32 µg/mL (≈ 48.7 µM); in [9], 0.06 µg/mL (≈ 0.0912 µM); in assay [10], 2 µg/mL (≈ 3.04 µM); in [11], 0.25 µg/mL (≈ 0.38 µM); in [12], 0.008 µg/mL (≈ 0.0122 µM). Further, the MIC in [13] is 2 µg/mL (≈ 3.04 µM); in [14] it was 0.008 µg/mL (≈ 0.0122 µM); in [15], 0.5 µg/mL (≈ 0.76 µM); in assay [16], 0.06 µg/mL (≈ 0.0912 µM); in assay [17], 0.015 µg/mL (≈ 0.0228 µM).
Turning to `C=C(CO/N=C(\C(=O)N[C@@H]1C(=O)N2C(C(=O)O)=C(CNC(=O)c3cc(O)c(O)c(Br)c3)CSC12)c1csc(N)n1)C(=O)O` (some centres undefined), the MIC in assay [1] amounted to 0.008 µg/mL (≈ 0.0115 µM); in [2], 16 µg/mL (≈ 22.9 µM); in [3] it was 0.008 µg/mL (≈ 0.0115 µM); in assay [4], 0.008 µg/mL (≈ 0.0115 µM); in assay [5] it was 0.06 µg/mL (≈ 0.086 µM); in [6] it was 0.008 µg/mL (≈ 0.0115 µM). The MIC in assay [7] is 8 µg/mL (≈ 11.5 µM); in assay [8] it was above 32 µg/mL; in assay [9], 0.03 µg/mL (≈ 0.043 µM); in assay [10] it was 16 µg/mL (≈ 22.9 µM); in assay [11] it was 0.05 µg/mL (≈ 0.0717 µM); in assay [12] it was 0.008 µg/mL (≈ 0.0115 µM). Besides, the MIC in assay [13] was determined as 2 µg/mL (≈ 2.87 µM); in [14], 0.008 µg/mL (≈ 0.0115 µM); in assay [15], 16 µg/mL (≈ 22.9 µM); in [16] it was 0.03 µg/mL (≈ 0.043 µM); in [17], 0.06 µg/mL (≈ 0.086 µM).
`CC(C)(O/N=C(\C(=O)N[C@@H]1C(=O)N2C(C(=O)O)=C(CCNC(=O)Nc3ccc(O)c(O)c3)CSC12)c1csc(N)n1)C(=O)O` (some centres undefined): the MIC in assay [1] was 0.125 µg/mL (≈ 0.192 µM); in assay [2], 64 µg/mL (≈ 98.5 µM); in assay [3], 0.125 µg/mL (≈ 0.192 µM); in assay [4], 0.125 µg/mL (≈ 0.192 µM); in [5] it was 1 µg/mL (≈ 1.54 µM); in [6] it was 0.06 µg/mL (≈ 0.0924 µM). Further, the MIC in [7] worked out at 16 µg/mL (≈ 24.6 µM); in assay [8] it was 64 µg/mL (≈ 98.5 µM); in [9], 0.125 µg/mL (≈ 0.192 µM); in assay [10], 64 µg/mL (≈ 98.5 µM); in assay [11] it was 0.125 µg/mL (≈ 0.192 µM); in assay [12] it was 0.015 µg/mL (≈ 0.0231 µM). Besides, the MIC in [13] is 16 µg/mL (≈ 24.6 µM); in [14], 0.25 µg/mL (≈ 0.385 µM); in assay [15], 8 µg/mL (≈ 12.3 µM); in assay [16] it was 2 µg/mL (≈ 3.08 µM); in [17], 0.5 µg/mL (≈ 0.77 µM).
As for `CC(C)(O/N=C(\C(=O)N[C@@H]1C(=O)N2C(C(=O)O)=C(CNC(=O)c3cc(O)c(O)c(C#N)c3)CSC12)c1csc(N)n1)C(=O)O` (some centres undefined), the MIC in assay [1] was 0.008 µg/mL (≈ 0.0124 µM); in assay [3], 0.008 µg/mL (≈ 0.0124 µM); in assay [4] it was 0.008 µg/mL (≈ 0.0124 µM); in assay [5], 0.06 µg/mL (≈ 0.0929 µM); in [7], 2 µg/mL (≈ 3.1 µM); in assay [8], 8 µg/mL (≈ 12.4 µM). The MIC is 0.06 µg/mL (≈ 0.0929 µM) in assay [11]; 4 µg/mL (≈ 6.2 µM) in assay [13]; 0.008 µg/mL (≈ 0.0124 µM) in assay [14]; 2 µg/mL (≈ 3.1 µM) in [15]; 0.06 µg/mL (≈ 0.0929 µM) in [16]; 0.03 µg/mL (≈ 0.0465 µM) in [17].
For `CCN(CC1=C(C(=O)O)N2C(=O)[C@@H](NC(=O)/C(=N\OC(C)(C)C(=O)O)c3csc(N)n3)C2SC1)C(=O)c1cc(O)c(O)c(C#N)c1` (some centres undefined), the MIC in assay [1] came out at 0.008 µg/mL (≈ 0.0119 µM); in assay [3], 0.008 µg/mL (≈ 0.0119 µM); in [4], 0.008 µg/mL (≈ 0.0119 µM); in assay [5] it was 0.06 µg/mL (≈ 0.0891 µM); in assay [7], 1 µg/mL (≈ 1.48 µM); in [8] it was 1 µg/mL (≈ 1.48 µM). Further, the MIC in assay [11] was found to be 0.125 µg/mL (≈ 0.186 µM); in assay [13] it was 16 µg/mL (≈ 23.7 µM); in assay [14] it was 0.008 µg/mL (≈ 0.0119 µM); in [15], 1 µg/mL (≈ 1.48 µM); in [16], 0.25 µg/mL (≈ 0.371 µM); in assay [17], 0.015 µg/mL (≈ 0.0223 µM).
For `CCO/N=C(\C(=O)N[C@@H]1C(=O)N2C(C(=O)O)=C(CNC(=O)c3ccc(O)c(O)c3)CSC12)c1csc(N)n1` (some centres undefined), the MIC in [1] amounted to 0.03 µg/mL (≈ 0.0533 µM); in assay [2], 4 µg/mL (≈ 7.11 µM); in assay [3], 0.06 µg/mL (≈ 0.107 µM); in assay [4] it was 0.015 µg/mL (≈ 0.0267 µM); in assay [5], 0.5 µg/mL (≈ 0.889 µM); in assay [6], 0.06 µg/mL (≈ 0.107 µM). Besides, the MIC in assay [7] turned out to be 64 µg/mL (≈ 114 µM); in assay [8], 128 µg/mL (≈ 228 µM); in assay [9] it was 0.25 µg/mL (≈ 0.444 µM); in [10] it was 2 µg/mL (≈ 3.56 µM); in [11], 64 µg/mL (≈ 114 µM); in assay [12], 0.008 µg/mL (≈ 0.0142 µM). For the same molecule, the MIC in [13] is 1 µg/mL (≈ 1.78 µM); in [14] it was 0.06 µg/mL (≈ 0.107 µM); in assay [15], above 128 µg/mL; in [16], 0.5 µg/mL (≈ 0.889 µM); in assay [17] it was 0.25 µg/mL (≈ 0.444 µM).
Regarding `CCOC(=O)C(CC1=C(C(=O)O)N2C(=O)[C@@H](NC(=O)/C(=N\OC(C)(C)C(=O)O)c3csc(N)n3)C2SC1)C(=O)c1cc(O)c(O)c(Br)c1` (some centres undefined), the MIC in assay [1] amounted to 0.008 µg/mL (≈ 0.0104 µM); in assay [3], 0.008 µg/mL (≈ 0.0104 µM); in assay [4] it was 0.008 µg/mL (≈ 0.0104 µM); in [5], 0.125 µg/mL (≈ 0.162 µM); in [7] it was 0.25 µg/mL (≈ 0.324 µM); in assay [8], 0.25 µg/mL (≈ 0.324 µM). The MIC in assay [11] was 0.008 µg/mL (≈ 0.0104 µM); in [13], 0.5 µg/mL (≈ 0.649 µM); in assay [14], 0.008 µg/mL (≈ 0.0104 µM); in [15], 0.25 µg/mL (≈ 0.324 µM); in assay [16], 0.125 µg/mL (≈ 0.162 µM); in [17], 0.03 µg/mL (≈ 0.0389 µM).
Consider `CCOC(=O)c1nc2cc(O)c(O)cc2nc1C(=O)NCC1=C(C(=O)O)N2C(=O)[C@@H](NC(=O)/C(=N\OC(C)(C)C(=O)O)c3csc(N)n3)C2SC1` (some centres undefined), for which the MIC in assay [1] was 0.008 µg/mL (≈ 0.0107 µM); in [3] it was 0.008 µg/mL (≈ 0.0107 µM); in assay [4], 0.008 µg/mL (≈ 0.0107 µM); in assay [5], 0.03 µg/mL (≈ 0.0403 µM); in assay [7], 0.06 µg/mL (≈ 0.0806 µM); in assay [8] it was 0.5 µg/mL (≈ 0.671 µM). Moreover, the MIC in assay [11] was determined as 0.015 µg/mL (≈ 0.0201 µM); in assay [13], 2 µg/mL (≈ 2.69 µM); in assay [14], 0.008 µg/mL (≈ 0.0107 µM); in assay [15], 0.06 µg/mL (≈ 0.0806 µM); in assay [16], 0.06 µg/mL (≈ 0.0806 µM); in assay [17], 0.03 µg/mL (≈ 0.0403 µM).
For the molecule `CC(=O)Oc1ccc(C(=O)OCC2=C(C(=O)O)N3C(=O)[C@@H](NC(=O)Cc4cccs4)C3SC2)cc1OC(C)=O` (some centres undefined), the MIC was above 128 µg/mL in assay [1]; 0.06 µg/mL (≈ 0.104 µM) in assay [2]; above 128 µg/mL in [3]; 0.125 µg/mL (≈ 0.218 µM) in assay [4]; 16 µg/mL (≈ 27.8 µM) in [5]; 0.5 µg/mL (≈ 0.87 µM) in [6]. Moreover, the MIC was above 128 µg/mL in assay [7]; above 128 µg/mL in [9]; 0.03 µg/mL (≈ 0.0522 µM) in assay [10]; above 128 µg/mL in [11]; 0.03 µg/mL (≈ 0.0522 µM) in assay [12]; above 128 µg/mL in assay [13]. Moreover, the MIC in [14] was 16 µg/mL (≈ 27.8 µM); in assay [15], above 128 µg/mL; in [16], 64 µg/mL (≈ 111 µM); in assay [17], 128 µg/mL (≈ 223 µM).
With `Nc1nc(/C(=N/OC(C(=O)O)c2ccccc2)C(=O)N[C@@H]2C(=O)N3C(C(=O)O)=C(CNC(=O)c4cc(O)c(O)c(Br)c4)CSC23)cs1` (some centres undefined), the MIC in assay [1] is 0.008 µg/mL (≈ 0.0107 µM); in assay [2], 16 µg/mL (≈ 21.4 µM); in assay [3] it was 0.015 µg/mL (≈ 0.0201 µM); in assay [4], 0.008 µg/mL (≈ 0.0107 µM); in assay [5], 0.06 µg/mL (≈ 0.0803 µM); in assay [6] it was 0.008 µg/mL (≈ 0.0107 µM). Moreover, the MIC in assay [7] was 2 µg/mL (≈ 2.68 µM); in assay [8], above 128 µg/mL; in assay [9], 0.015 µg/mL (≈ 0.0201 µM); in [10] it was 16 µg/mL (≈ 21.4 µM); in assay [11], 0.03 µg/mL (≈ 0.0401 µM); in assay [12] it was 0.008 µg/mL (≈ 0.0107 µM). The MIC in assay [13] came to 0.25 µg/mL (≈ 0.334 µM); in assay [14], 0.008 µg/mL (≈ 0.0107 µM); in assay [15] it was 4 µg/mL (≈ 5.35 µM); in [16], 0.06 µg/mL (≈ 0.0803 µM); in assay [17], 0.03 µg/mL (≈ 0.0401 µM).
